Data set [1] can be described thus: Molar enthalpy of transition or fusion. Particulars: Crystal; DSC.
For data set [2] the following is noted: Crystal; DTA.

SMILES strings stand for the structures. ± gives the expanded uncertainty stated by the source.

For the molecule `CC(C)(C)C(=O)C(Oc1ccc(Cl)cc1)n1ccnc1` (configuration not stated) [1-(4-Chlorophenoxy)-1-(imidazol-1-yl)-3,3-dimethylbutanone], the “Molar enthalpy of transition or fusion” value in data set [1] worked out at 6.93 ± 0.239 kcal/mol. For the same molecule, the Triple point temperature in data set [2] is 372 ± 0.7 K.

For the origin of these results see the NIST ThermoML archive (doi:10.1016/j.jct.2014.04.011).
